{"source": "patent US20260256826A1", "about": "“PREPARATION METHOD AND APPLICATION OF ZINC HYALURONATE” (BLOOMAGE BIOTECHNOLOGY CORPORATION LIMITED, priority 2022, published 2026)", "key": {"[1]": {"assay": "Hydroxyl radical scavenging, salicylic acid method", "conditions": "0.5% solution", "text": "The salicylic acid method was used to determine the hydroxyl radical scavenging ability of zinc hyaluronate samples. A certain amount of H2O2 and FeSO4 were mixed to produce hydroxyl radicals by Fenton reaction. Adding salicylic acid to the reaction system can capture hydroxyl radicals and produce 3-hydroxysalicylic acid and 5-hydroxysalicylic acid. Both products have strong absorption at 510 nm. The reaction equation is as follows: The addition of the sample will compete with salicylic acid for the reaction with OH, thereby reducing the production of 3-hydroxysalicylic acid and 5-hydroxysalicylic acid. The fixed reaction time method was used to measure the absorbance of the reaction solution at 510 nm and compare it with the blank solution to determine the scavenging effect of the analyte on hydroxyl free radicals. The scavenging rate is calculated as follows: In the formula, S is the scavenging rate, A0 is the absorbance value of the blank control, Ax is the absorbance value when the sample is added, and Ax0 is the absorbance value without adding the color developer."}, "[2]": {"assay": "Superoxide anion scavenging, pyrogallol self-oxidation method", "conditions": "0.5% solution", "protocol": "The pyrogallol self-oxidation method was used. Under weakly alkaline conditions, pyrogallol can undergo self-oxidation reaction to generate superoxide anions and a colored intermediate product with a characteristic absorption peak at 320 nm. In the initial trial stage, the amount of intermediate product is linearly related to time. Since the self-oxidation rate depends on the concentration of superoxide anions, when a superoxide anion scavenger is added, it can react quickly with superoxide anions to inhibit the self-oxidation reaction, thereby preventing the accumulation of intermediates and weakening the light absorption of the solution at 320 nm. Therefore, the scavenging effect of the scavenger on superoxide anions can be evaluated by measuring the […] value. scavenging rate of superoxide anion free radical (%)=(A0-Ax)/A0×100%"}}}
{"molecule": "CC(=O)[O-].CC(=O)[O-].[Zn+2]", "note": "[zinc acetate dihydrate]", "values": [{"measurement": "hydroxyl free radical scavenging ability (in words)", "setting": "[1]", "value": "significantly lower than that of HA-Zn"}, {"measurement": "superoxide anion free radical scavenging ability (in words)", "setting": "[2]", "value": "significantly lower than that of HA-Zn"}]}
